Assay results from US8163768B2, “1,4-dihydropyridine-fused heterocycles, process for preparing the same, use and compositions containing them” (Aventis Pharma S.A.., priority 2005, dated 2012).

Molecular target: T1, Aurora2 (Aurora-A) (Homo sapiens, UniProt O14965)
T1 construct: Aurora-A: the full length recombinant protein including an N-terminal poly-histidine tail has been expressed in E. coli; poly-histidine (N); made in house; host or cells: E. coli
T1 sequence (O14965 1-403): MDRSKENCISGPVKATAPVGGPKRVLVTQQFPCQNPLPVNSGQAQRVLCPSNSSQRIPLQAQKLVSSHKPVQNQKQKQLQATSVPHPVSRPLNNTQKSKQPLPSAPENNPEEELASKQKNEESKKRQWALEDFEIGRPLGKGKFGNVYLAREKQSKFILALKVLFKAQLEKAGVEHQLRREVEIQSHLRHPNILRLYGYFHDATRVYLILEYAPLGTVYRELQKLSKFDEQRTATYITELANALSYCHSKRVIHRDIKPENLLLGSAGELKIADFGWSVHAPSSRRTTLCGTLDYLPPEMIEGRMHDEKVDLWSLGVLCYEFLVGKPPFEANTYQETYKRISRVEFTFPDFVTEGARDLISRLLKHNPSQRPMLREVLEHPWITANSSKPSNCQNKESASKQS
Assay: Aurora 2 (Aurora A) kinase radioactivity scintillation assay using nickel chelate Flash plates
Assay type: biochemical
Conditions: 10 nM Aurora-A, 500 nM NuMA substrate, 1 μM ATP with [33P] ATP, 10 mM MgCl2, 30 minutes, 37° C.
Protocol: Aurora 1 and 2 (Respectively. Aurora B and A)
The inhibitory effect of compounds with respect to the Aurora 1 and 2 kinases is determined with a radioactivity scintillation assay using nickel chelate.
The kinase activity of Aurora is measured by the phosphorylation of NuMA-histidine substrate in the presence of radiolabelled ATP ([^33P] ATP) using 96 well Flash plates where the nickel-chelate is linked to the surface of the microplate. The amount of ^33P incorporated to the substrate NuMA is proportional to the aurora activity.
The Flash plates used are nickel-chelate 96 well plates (Perkin Elmer, model SMP107).
The products to be evaluated are incubated in a 100 μl reaction volume per well in the presence of 10 nM of Aurora-B or Aurora-A, 500 nM of NuMA substrate in the following buffer: 50 mM of NaCl, 5 mM MgCl2, (Aurora-B) or 10 mM MgCl2 (Aurora-A) and 1 mM of DTT at 37° C.
80 μL of enzyme/substrate incubation buffer is distributed in each well, followed by 10 μL of solution of compound to be measured with various concentrations. The reaction is started by adding 1 μM of ATP (final concentration) containing 0.2 μCi of [^33P] ATP (10 μL). After 30 minutes of incubation the reaction is stopped by removal of the reaction mixture and each well is washed twice with 300 μl of buffer Tris/HCl. The radioactivity is measured in each well using a Packard Top count scintillation counter instrument.
The enzymatic activity is expressed as counts per minute obtained in 30 minutes after subtraction of the background noise (reaction medium without enzyme). The measurement is expressed as percentage of inhibition of Aurora activity versus the control. To generate IC50 values, compounds of the invention are tested at different concentration and the percentage of inhibition are plotted as function of compound concentration, IC50s are calculated using the Xlfit 4 curve fitting software.

Row | SMILES | IC50 [nM]
1 | Cc1cc(C2C3=C(CNCC3=O)Nc3n[nH]cc32)ccc1O (centres unmarked) [Example 1, 4-(4-Hydroxy-3-methyl-phenyl)-2,4,6,7,8,9-hexahydro-pyrazolo[3,4-b]-1,7-naphthyridin-5-one; compound with trifluoro-acetic acid] | 7450
2 | CC(C)(C)c1ccc(Oc2cccc(C3C4=C(CNCC4=O)Nc4n[nH]cc43)c2)cc1 (centres unmarked) [Example 8, 4-[3-(4-tert-Butyl-phenoxy)-phenyl]-2,4,6,7,8,9-hexahydro-pyrazolo[3,4-b]-1,7-naphthyridin-5-one; compound with trifluoro-acetic acid] | 696
3 | O=C1CNCC2=C1C(c1ccc(-c3ccc(Cl)cc3)o1)c1c[nH]nc1N2 (centres unmarked) [Example 16, 4-[5-(4-Chloro-phenyl)-furan-2-yl]-2,4,6,7,8,9-hexahydro-pyrazolo[3,4-b]-1,7-naphthyridin-5-one; compound with trifluoro-acetic acid] | 1080
4 | O=C1CNCC2=C1C(c1ccc(COc3ccc(Cl)c(Cl)c3)o1)c1c[nH]nc1N2 (centres unmarked) [Example 19, 4-[5-(3,4-Dichloro-phenoxymethyl)-furan-2-yl]-2,4,6,7,8,9-hexahydro-pyrazolo[3,4-b]-1,7-naphthyridin-5-one; compound with trifluoro-acetic acid] | 8390
5 | O=C1CCCC2=C1C(c1cccc(Oc3ccc(Cl)cc3)c1)c1c[nH]nc1N2 (centres unmarked) [Example 22, 4-[3-(4-Chloro-phenoxy)-phenyl]-2,4,6,7,8,9-hexahydro-pyrazolo[3,4-b]quinolin-5-one; compound with trifluoro-acetic acid] | 2320
6 | O=C1CCCC2=C1C(c1ccc(-c3cccc(Cl)c3)o1)c1c[nH]nc1N2 (centres unmarked) [Example 23] | 2410
7 | O=C1CCCC2=C1C(c1ccc(-c3ccccc3C(F)(F)F)o1)c1c[nH]nc1N2 (centres unmarked) [Example 26, 4-[5-(2-Trifluoromethyl-phenyl)-furan-2-yl]-2,4,6,7,8,9-hexahydro-pyrazolo[3,4-b]quinolin-5-one; compound with trifluoro-acetic acid] | 1030
8 | O=C1CN(CC(O)CN2CCOCC2)CC2=C1C(c1cccc(Oc3ccc(Cl)cc3)c1)c1c[nH]nc1N2 (centres unmarked) [Example 50, 4-[3-(4-Chloro-phenoxy)-phenyl]-7-(2-hydroxy-3-morpholin-4-yl-propyl)-2,4,6,7,8,9-hexahydro-pyrazolo[3,4-b]-1,7-naphthyridin-5-one; compound with trifluoro-acetic acid] | 227
9 | O=C1CN(C(=O)c2ccno2)CC2=C1C(c1cccc(Oc3ccc(Cl)cc3)c1)c1c[nH]nc1N2 (centres unmarked) [Example 54, 4-[3-(4-Chloro-phenoxy)-phenyl]-7-(isoxazole-5-carbonyl)-2,4,6,7,8,9-hexahydro-pyrazolo[3,4-b]-1,7-naphthyridin-5-one; compound with trifluoro-acetic acid] | 6100
10 | Cc1nnsc1C(=O)N1CC(=O)C2=C(C1)Nc1n[nH]cc1C2c1cccc(Oc2ccc(Cl)cc2)c1 (centres unmarked) [Example 55, 4-[3-(4-Chloro-phenoxy)-phenyl]-7-(4-methyl-[1,2,3]thiadiazole-5-carbonyl)-2,4,6,7,8,9-hexahydro-pyrazolo[3,4-b]-1,7-naphthyridin-5-one; compound with trifluoro-acetic acid] | 7200
11 | O=C1CNCC2=C1C(c1cccc(C(=O)NCc3ccc(OC(F)(F)F)cc3)c1)c1c[nH]nc1N2 (centres unmarked) [Example 60, 3-(5-Oxo-2,4,6,7,8,9-hexahydro-pyrazolo[3,4b]-1,7-naphthyridin-4-yl)-N-(4-trifluoromethoxy-benzyl)-benzamide; compound with trifluoro-acetic acid] | 6500
12 | O=C1CNCC2=C1C(c1cccc(C(=O)Nc3ccc(OC(F)(F)F)cc3)c1)c1c[nH]nc1N2 (centres unmarked) [Example 63, 3-(5-Oxo-2,4,6,7,8,9-hexahydro-pyrazolo[3,4b]-1,7-naphthyridin-4-yl)-N-(4-trifluoromethoxy-phenyl)-benzamide; compound with trifluoro-acetic acid] | 3300
13 | O=C1CNCC2=C1C(c1cccc(C(=O)Nc3cccc(OC(F)(F)F)c3)c1)c1c[nH]nc1N2 (centres unmarked) [Example 64, 3-(5-Oxo-2,4,6,7,8,9-hexahydro-pyrazolo[3,4b]-1,7-naphthyridin-4-yl)-N-(3-trifluoromethoxy-phenyl)-benzamide; compound with trifluoro-acetic acid] | 4100

Next, values leading:

Row | IC50 [nM] | SMILES
14 | 1130 | Cc1ccc(Oc2cccc(C3C4=C(CNCC4=O)Nc4n[nH]cc43)c2)cc1 (centres unmarked) [Example 11, 4-(3-p-Tolyloxy-phenyl)-2,4,6,7,8,9-hexahydro-pyrazolo[3,4-b]-1,7-naphthyridin-5-one; compound with trifluoro-acetic acid]
15 | 888 | O=C1CNCC2=C1C(c1ccc(-c3ccccc3C(F)(F)F)o1)c1c[nH]nc1N2 (centres unmarked) [Example 17, 4-[5-(2-trifluoromethyl-phenyl)-furan-2-yl]-2,4,6,7,8,9-hexahydro-pyrazolo[3,4-b]-1,7-naphthyridin-5-one; compound with trifluoro-acetic acid]
16 | 2150 | O=C1CNCC2=C1C(c1ccc(-c3cccc(C(F)(F)F)c3)o1)c1c[nH]nc1N2 (centres unmarked) [Example 18, 4-[5-(3-trifluoromethyl-phenyl)-furan-2-yl]-2,4,6,7,8,9-hexahydro-pyrazolo[3,4-b]-1,7-naphthyridin-5-one; compound with trifluoro-acetic acid]
17 | 291 | O=C1CCCC2=C1C(c1ccc(COc3ccc(Cl)c(Cl)c3)o1)c1c[nH]nc1N2 (centres unmarked) [Example 24, 4-[5-(3,4-Dichloro-phenoxymethyl)-furan-2-yl]-2,4,6,7,8,9-hexahydro-pyrazolo[3,4-b]quinolin-5-one; compound with trifluoro-acetic acid]
18 | 3070 | O=C1CCCC2=C1C(c1ccc(-c3cccc(C(F)(F)F)c3)o1)c1c[nH]nc1N2 (centres unmarked) [Example 25, 4-[5-(3-Trifluoromethyl-phenyl)-furan-2-yl]-2,4,6,7,8,9-hexahydro-pyrazolo[3,4-b]quinolin-5-one; compound with trifluoro-acetic acid]
19 | 4920 | O=C1CCCC2=C1C(c1ccc(-c3ccc(Cl)cc3)o1)c1c[nH]nc1N2 (centres unmarked) [Example 27, 4-[5-(4-Chloro-phenyl)-furan-2-yl]-2,4,6,7,8,9-hexahydro-pyrazolo[3,4-b]quinolin-5-one; compound with trifluoro-acetic acid]
20 | 9700 | Cn1c2c(c(=O)n(C)c1=O)C(c1cccc(Oc3ccc(Cl)cc3)c1)c1c[nH]nc1N2 (centres unmarked) [Example 43, 4-[3-(4-Chloro-phenoxy)-phenyl]-6,8-dimethyl-2,4,8,9-tetrahydro-1,2,6,8,9-pentaaza-cyclopenta[b]naphthalene-5,7-dione; compound with trifluoro-acetic acid]
21 | 7370 | Cc1noc(C)c1C(=O)N1CC(=O)C2=C(C1)Nc1n[nH]cc1C2c1cccc(Oc2ccc(Cl)cc2)c1 (centres unmarked) [Example 53, 4-[3-(4-Chloro-phenoxy)-phenyl]-7-(3,5-dimethyl-isoxazole-4-carbonyl)-2,4,6,7,8,9-hexahydro-pyrazolo[3,4-b]-1,7-naphthyridin-5-one; compound with trifluoro-acetic acid]
22 | 630 | O=C1CNCC2=C1C(c1cccc(NC(=O)c3ccc(Cl)cc3)c1)c1c[nH]nc1N2 (centres unmarked) [Example 65, 4-Chloro-N-[3-(5-Oxo-2,4,6,7,8,9-hexahydro-pyrazolo[3,4b]-1,7-naphthyridin-4-yl)-phenyl]-benzamide; compound with trifluoro-acetic acid]
23 | 2000 | O=C(Nc1ccc(Cl)cc1)Nc1cccc(C2C3=C(CNCC3=O)Nc3n[nH]cc32)c1 (centres unmarked) [Example 67, 1-(4-Chloro-phenyl)-3-[3-(5-Oxo-2,4,6,7,8,9-hexahydro-pyrazolo[3,4b]-1,7-naphthyridin-4-yl)-phenyl]-urea; compound with trifluoro-acetic acid]
